According to patent USRE40086E1, “Method for treating bacterial infection with novel 7-substituted-9-substituted amino 6-demethyl-6-deoxytetracyclines” (Wyeth Holdings Corporation, priority 1991, dated 2008):
Counter-ions that a name gives are not always drawn.

Legend:
E. coli J2175 = assay: MIC, agar dilution (Table IA); type: cell-based; conditions: unit assumed
[1] = system: S. aureus UBMS 90-2 (tetM); assay: MIC, agar dilution; type: cell-based; conditions: for MIC: S. aureus UBMS 90-2 (tetM)
S. aureus ROSE (MP) = assay: MIC, agar dilution (Table IA); type: cell-based; conditions: unit assumed
S. aureus NEMC 8769/89-4 = assay: MIC, agar dilution (Table IA); type: cell-based; conditions: unit assumed
E. coli J3272 TetC = assay: MIC, agar dilution (Table IA); type: cell-based; conditions: unit assumed
[2] = system: Escherichia coli (Agricultural); assay: MIC vs recent clinical and agricultural isolates (Table V, KK); type: cell-based; conditions: [15] tested
Kiebsiella pneumoniae = assay: as above; type: cell-based; conditions: [10] tested
E. coli MC4100 TetB = assay: MIC, agar dilution (Table IA); type: cell-based; conditions: unit assumed
Citrobacter diversus = assay: MIC vs recent clinical and agricultural isolates (Table V, KK); type: cell-based; conditions: [10] tested
[3] = system: S. aureus IVES 2943 (meth. resistant); assay: MIC, agar dilution; type: cell-based; conditions: S. aureus IVES 2943; Table IA; unit assumed
Clostridium spp. = type: cell-based; conditions: [9] tested
Clostridium difficile = assay: MIC vs recent clinical and agricultural isolates (Table V, KK); type: cell-based; conditions: [12] tested
E. coli PRP1 TetA = assay: MIC, agar dilution (Table IA); type: cell-based; conditions: unit assumed
Shigella spp. = type: cell-based; conditions: [14] tested
[4] = system: S. aureus IVES 1983 (meth. resistant); assay: MIC, agar dilution; type: cell-based; conditions: S. aureus IVES 1983; Table IA; unit assumed
[5] = system: Wild Type S30 extract, E. coli strain MRE600 (tetracycline sensitive); assay: E. coli in vitro transcription and protein translation, 35S-methionine incorporation (Table VIII)
S. aureus SMITH (sens) = assay: In vivo antibacterial evaluation, acute lethal infection in mice; conditions: Intraveneous
[6] = system: Staphylococcus aureus, methicillin-resistant; assay: MIC vs recent clinical and agricultural isolates (Table V, KK); type: cell-based; conditions: [15] tested
E. coli J3272 TetD = assay: MIC, agar dilution (Table IA); type: cell-based; conditions: unit assumed
Proteus vulgaris = assay: MIC vs recent clinical and agricultural isolates (Table V, KK); type: cell-based; conditions: [18] tested
Enterococcus faecalis = assay: as above; type: cell-based; conditions: [10] tested
E. coli BAJ9003 = assay: MIC, agar dilution (Table IA); type: cell-based; conditions: unit assumed
[7] = system: TetM S30 extract, derivative of E. coli MRE600 containing the tetM determinant; assay: E. coli in vitro transcription and protein translation, 35S-methionine incorporation (Table VIII)
[8] = system: Ps. acruginosa ATCC 27853; assay: MIC, agar dilution (Table IA); type: cell-based; conditions: unit assumed
[9] = system: Salmonella cholerasuis (Agricultural); assay: MIC vs recent clinical and agricultural isolates (Table V, KK); type: cell-based; conditions: [15] tested
Enterobacter cloacae = assay: as above; type: cell-based; conditions: [10] tested
Neisseria gonorrhoeae = assay: MIC against clinical isolates (Table V, A and O); type: cell-based; conditions: Neisseria gonorrhoeae clinical isolates, (9) tested
[10] = system: E. faecalis UBMS 90-7 (tetM); assay: MIC, agar dilution; type: cell-based; conditions: Enterococcus faecalis
Haemophilus influenzae = assay: MIC against clinical isolates (Table V, A and O); type: cell-based; conditions: (18) tested
Escherichia coli = assay: MIC against clinical isolates (Table V, A and O); type: cell-based; conditions: Escherichia coli clinical isolates, (10) tested
[11] = system: E. faecalis UBMS 90-6 (tetM); assay: MIC, agar dilution; type: cell-based; conditions: Enterococcus faecalis
[12] = system: N. gonorrhoeae 6418 (tetM); assay: MIC, agar dilution; type: cell-based; conditions: Neisseria gonorrhoeae
[13] = system: N. gonorrhoeae IL 611 (Sensitive); assay: MIC, agar dilution; type: cell-based; conditions: Neisseria gonorrhoeae; N. gonorrhoeae IL 611 (Sensitive); read-out: MIC
Klebsiella pneumoniae = assay: MIC against clinical isolates (Table V, A and O); type: cell-based; conditions: Klebsiella pneumoniae clinical isolates, (10) tested
[14] = system: E. coli UBMS 88-2 (Sensitive); assay: MIC, agar dilution; type: cell-based; conditions: Escherichia coli; E. coli UBMS 88-2 (Sensitive); read-out: MIC
S. aureus UBMS 90-2 = assay: In vivo antibacterial evaluation, acute lethal infection in mice; conditions: Staphylococcus aureus, UBMS902, sc, read-out: ED50, median effective dose protecting 50% of the infected mice; mice infected with S. aureus UBMS 90-2 (tetM), single subcutaneous dosing
Description: (§1) In Vivo Antibacterial Evaluation (Table VII)

S. aureus UBMS 90-1 = assay: as above; conditions: Staphylococcus aureus, UBMS901, sc, read-out: ED50, median effective dose protecting 50% of the infected mice; mice infected with S. aureus UBMS 90-1 (tetM), single subcutaneous dosing
Description: as §1

Proteus spp. indole+ = assay: MIC against clinical isolates (Table V, A and O); type: cell-based; conditions: Proteus spp. indole+ clinical isolates, (9) tested

CN(C)CC(=O)Nc1cc(N(C)C)c2c(c1O)C(=O)C1=C(O)[C@]3(O)C(=O)C(C(N)=O)=C(O)[C@@H](N(C)C)C3CC1C2.Cl.Cl (stereo partly drawn) [KK, [4S-(4alpha,12aalpha)]-4,7-Bis(dimethylamino)-9-[[(dimethylamino)acetyl]amino]-1,4,4a,5,5a,6,11,12a-octahydro-3,10,12,12a-tetrahydroxy-1,11-dioxo-2-naphthacenecarboxamide dihydrochloride]
Antibacterial activity (MIC) (E. coli J2175): 0.25 µg/mL | Antibacterial activity (MIC) ([1]; S. aureus UBMS 90-2 TetM, Table IA, unit assumed): 0.12 µg/mL | Antibacterial activity (MIC) (S. aureus ROSE (MP)): 1 µg/mL | Antibacterial activity (MIC) (S. aureus NEMC 8769/89-4): 0.06 µg/mL | Antibacterial activity (MIC) (E. coli J3272 TetC): 1 µg/mL | MIC (range over isolates) [2]: 0.12 to 4 µg/mL | MIC (range over isolates) (Kiebsiella pneumoniae): 0.25 to 8 µg/mL | Antibacterial activity (MIC) (E. coli MC4100 TetB): 0.25 µg/mL | MIC (range over isolates) (Citrobacter diversus): 0.25 to 1 µg/mL | Antibacterial activity (MIC) [3]: 1 µg/mL | MIC (range over isolates) (Clostridium spp.): 0.015 to 0.12 µg/mL | MIC (range over isolates) (Clostridium difficile): 0.03 µg/mL | Antibacterial activity (MIC) (E. coli PRP1 TetA): 1 µg/mL | MIC (range over isolates) (Shigella spp.): 0.06 to 0.5 µg/mL | Antibacterial activity (MIC) [4]: 1 µg/mL | % INHIBITION Wild Type S30 ([5]; 0.03 mg/ml): 81% | % INHIBITION Wild Type S30 ([5]; 0.06 mg/ml): 82% | % INHIBITION Wild Type S30 ([5]; 0.5 mg/ml): 90% | % INHIBITION Wild Type S30 ([5]; 1.0 mg/ml): 92% | ED50 (S. aureus SMITH (sens)): 0.68 mg/kg | MIC (range over isolates) [6]: 0.12 to 2 µg/mL | Antibacterial activity (MIC) (E. coli J3272 TetD): 0.12 µg/mL | MIC (range over isolates) (Proteus vulgaris): 0.5 to 4 µg/mL | MIC (range over isolates) (Enterococcus faecalis): 0.015 to 0.12 µg/mL | Antibacterial activity (MIC) (E. coli BAJ9003): 0.03 µg/mL | % INHIBITION TetM S30 ([7]; 0.03 mg/ml): 75% | % INHIBITION TetM S30 ([7]; 0.06 mg/ml): 89% | % INHIBITION TetM S30 ([7]; 0.5 mg/ml): 96% | % INHIBITION TetM S30 ([7]; 1.0 mg/ml): 95% | Antibacterial activity (MIC) [8]: 4 µg/mL | MIC (range over isolates) [9]: 0.5 to 16 µg/mL | MIC (range over isolates) (Enterobacter cloacae): 0.5 to 1 µg/mL

CN(C)c1ccc(O)c2c1C[C@H]1C[C@H]3[C@H](N(C)C)C(O)=C(C(N)=O)C(=O)[C@@]3(O)C(O)=C1C2=O [Compound O, 7-(Dimethylamino)-6-demethyl-6-deoxytetracycline hydrochloride (minocycline hydrochloride), reference compound]
MIC ([1]; hydrochloride): 1 µg/mL | MIC ([1]; Staphylococcus aureus): 2 µg/mL | MIC50 (Neisseria gonorrhoeae; read-out: MIC50): 0.25 µg/mL | MIC90 (Neisseria gonorrhoeae; read-out: MIC90): > 32 µg/mL | MIC [10]: 8 µg/mL | MIC (range over isolates) [2]: 1 to 16 µg/mL | MIC (range over isolates) (Kiebsiella pneumoniae): 0.5 to 8 µg/mL | MIC (range over isolates) (Citrobacter diversus): 0.25 to 4 µg/mL | MIC50 (Haemophilus influenzae): 0.12 µg/mL | MIC90 (Haemophilus influenzae): 0.25 µg/mL | MIC Range (Haemophilus influenzae): 0.06 to 0.25 µg/mL | MIC (range over isolates) (Clostridium difficile): 0.015 to 16 µg/mL | MIC Range (Escherichia coli): 0.12 to 32.00 µg/mL | MIC50 (Escherichia coli; read-out: MIC50): 0.25 µg/mL | MIC90 (Escherichia coli; read-out: MIC90): 16 µg/mL | MIC (range over isolates) (Shigella spp.): 0.25 to 8 µg/mL | MIC [11]: 8 µg/mL | MIC [12]: > 32 µg/mL | MIC (range over isolates) [6]: 0.06 to 4 µg/mL | MIC (range over isolates) (Proteus vulgaris): 0.5 to 16 µg/mL | MIC [13]: 0.5 µg/mL | MIC50 (Klebsiella pneumoniae; read-out: MIC50): 1 µg/mL | MIC90 (Klebsiella pneumoniae; read-out: MIC90): 4 µg/mL | MIC [14]: 0.5 µg/mL | MIC (range over isolates) (Enterococcus faecalis): 0.03 to 16 µg/mL | ED50 (S. aureus UBMS 90-2): 3 mg/kg | ED50 (S. aureus UBMS 90-1): 1.7 mg/kg | MIC50 (Proteus spp. indole+; read-out: MIC50): 16 µg/mL | MIC90 (Proteus spp. indole+; read-out: MIC90): > 32 µg/mL | MIC (range over isolates) (Enterobacter cloacae): 0.25 to 4 µg/mL
